Reference: ChEMBL document CHEMBL3785036 (J Pharm Sci, 1974)

Experiments:
Assay type in all cases: ADME, organism-based
[1] = Drug excretion in human subject slow inactivator assessed as total isonicotinoyl compound level in urine at 681 mg, iv infused at constant rate 5.4 min measured 496 mins after start of drug injection by colorimetry; details: in vivo
[2] = Drug metabolism in human slow inactivators assessed as excretion of isonicotinic acid in urine at 1 g, iv by colorimetry; details: in vivo
[3] = Drug excretion in human subject slow inactivator assessed as total isonicotinoyl compound level in urine at 681 mg, iv infused at constant rate 5.4 min measured 150 mins after start of drug injection by colorimetry; details: in vivo, 2.5 h
[4] = Drug excretion in human subject slow inactivator assessed as sum of isoniazid plus hydrazones, acetylisoniazid, isonicotinic acid and isonicotinuric acid level in urine at 681 mg, iv infused at constant rate 5.4 min measured 554 mins after start of drug injection by colorimetry; details: in vivo
[5] = Drug excretion in human subject slow inactivator assessed as sum of isoniazid plus hydrazones, acetylisoniazid, isonicotinic acid and isonicotinuric acid level in urine at 681 mg, iv infused at constant rate 5.4 min measured 59.1 mins after start of drug injection by colorimetry; details: in vivo, 0.985 h
[6] = Drug excretion in human subject slow inactivator assessed as total isonicotinoyl compound level in urine at 681 mg, iv infused at constant rate 5.4 min measured 116 mins after start of drug injection by colorimetry; details: in vivo
[7] = Drug excretion in human subject rapid inactivator assessed as sum of isoniazid plus hydrazones, acetylisoniazid, isonicotinic acid and isonicotinuric acid level in urine at 670 mg, iv infused at constant rate 5.2min measured 126 mins after start of drug injection by colorimetry; details: in vivo, 2.1 h
[8] = Drug excretion in human subject rapid inactivator assessed as total isonicotinoyl compound level in urine at 670 mg, iv infused at constant rate 5.2min measured 458 mins after start of drug injection by colorimetry; details: in vivo
[9] = Drug excretion in human subject rapid inactivator assessed as sum of isoniazid plus hydrazones, acetylisoniazid, isonicotinic acid and isonicotinuric acid level in urine at 670 mg, iv infused at constant rate 5.2min measured 486 mins after start of drug injection by colorimetry; details: in vivo, 8.1 h
[10] = Drug excretion in human subject rapid inactivator assessed as total isonicotinoyl compound level in urine at 670 mg, iv infused at constant rate 5.2min measured 126 mins after start of drug injection by colorimetry; details: in vivo, 2.1 h
[11] = Drug excretion in human subject slow inactivator assessed as sum of isoniazid plus hydrazones, acetylisoniazid, isonicotinic acid and isonicotinuric acid level in urine at 681 mg, iv infused at constant rate 5.4 min measured 208.7 mins after start of drug injection by colorimetry; details: in vivo, 3.47833 h
[12] = Drug metabolism in human slow inactivators assessed as excretion of alpha-ketoglutaric acid isonicotinoylhydrazone in urine at 1 g, iv by colorimetry; details: in vivo
[13] = Drug excretion in human subject rapid inactivator assessed as total isonicotinoyl compound level in urine at 670 mg, iv infused at constant rate 5.2min measured 259 mins after start of drug injection by colorimetry; details: in vivo
[14] = Drug excretion in human subject slow inactivator assessed as total isonicotinoyl compound level in urine at 681 mg, iv infused at constant rate 5.4 min measured 613 mins after start of drug injection by colorimetry; details: in vivo
[15] = Drug metabolism in human rapid inactivators assessed as excretion of isonicotinic acid in urine at 1 g, iv by colorimetry; details: in vivo
[16] = Drug excretion in human subject slow inactivator assessed as total isonicotinoyl compound level in urine at 681 mg, iv infused at constant rate 5.4 min measured 554 mins after start of drug injection by colorimetry; details: in vivo
[17] = Drug excretion in human subject rapid inactivator assessed as sum of isoniazid plus hydrazones, acetylisoniazid, isonicotinic acid and isonicotinuric acid level in urine at 670 mg, iv infused at constant rate 5.2min measured 400 mins after start of drug injection by colorimetry; details: in vivo
[18] = Drug excretion in human subject slow inactivator assessed as sum of isoniazid plus hydrazones, acetylisoniazid, isonicotinic acid and isonicotinuric acid level in urine at 681 mg, iv infused at constant rate 5.4 min measured 35.5 mins after start of drug injection by colorimetry; details: in vivo
[19] = Drug excretion in human subject rapid inactivator assessed as sum of isoniazid plus hydrazones, acetylisoniazid, isonicotinic acid and isonicotinuric acid level in urine at 670 mg, iv infused at constant rate 5.2min measured 227 mins after start of drug injection by colorimetry; details: in vivo
[20] = Drug excretion in human subject rapid inactivator assessed as total isonicotinoyl compound level in urine at 670 mg, iv infused at constant rate 5.2min measured 62 mins after start of drug injection by colorimetry; details: in vivo
[21] = Drug excretion in human subject slow inactivator assessed as total isonicotinoyl compound level in urine at 681 mg, iv infused at constant rate 5.4 min measured 648 mins after start of drug injection by colorimetry; details: in vivo, 10.8 h
[22] = Drug excretion in human subject slow inactivator assessed as sum of isoniazid plus hydrazones, acetylisoniazid, isonicotinic acid and isonicotinuric acid level in urine at 681 mg, iv infused at constant rate 5.4 min measured 747 mins after start of drug injection by colorimetry; details: in vivo, 12.45 h
[23] = Drug excretion in human subject rapid inactivator assessed as total isonicotinoyl compound level in urine at 670 mg, iv infused at constant rate 5.2min measured 32 mins after start of drug injection by colorimetry; details: in vivo
[24] = Drug excretion in human subject slow inactivator assessed as total isonicotinoyl compound level in urine at 681 mg, iv infused at constant rate 5.4 min measured 243.5 mins after start of drug injection by colorimetry; details: in vivo
[25] = Drug excretion in human subject slow inactivator assessed as total isonicotinoyl compound level in urine at 681 mg, iv infused at constant rate 5.4 min measured 370.3 mins after start of drug injection by colorimetry; details: in vivo, 6.17167 h
[26] = Drug excretion in human subject slow inactivator assessed as total isonicotinoyl compound level in urine at 681 mg, iv infused at constant rate 5.4 min measured 276.3 mins after start of drug injection by colorimetry; details: in vivo, 4.605 h
[27] = Drug metabolism in human slow inactivators assessed as excretion of acetylisoniazid in urine at 1 g, iv by colorimetry; details: in vivo
[28] = Drug metabolism in human slow inactivators assessed as excretion of pyruvic acid isonicotinoylhydrazone in urine at 1 g, iv by colorimetry; details: in vivo
[29] = Drug excretion in human subject slow inactivator assessed as total isonicotinoyl compound level in urine at 681 mg, iv infused at constant rate 5.4 min measured 747 mins after start of drug injection by colorimetry; details: in vivo, 12.45 h
[30] = Drug excretion in human subject slow inactivator assessed as sum of isoniazid plus hydrazones, acetylisoniazid, isonicotinic acid and isonicotinuric acid level in urine at 681 mg, iv infused at constant rate 5.4 min measured 276.3 mins after start of drug injection by colorimetry; details: in vivo, 4.605 h
[31] = Drug excretion in human subject slow inactivator assessed as sum of isoniazid plus hydrazones, acetylisoniazid, isonicotinic acid and isonicotinuric acid level in urine at 681 mg, iv infused at constant rate 5.4 min measured 613 mins after start of drug injection by colorimetry; details: in vivo

Drug excretion [1]: 13.5 mg
Drug metabolism [2]: 18.1 %molar
Drug excretion [3]: 38.1 mg
Drug excretion [4]: 13.38 mg
Drug excretion [5]: 30.44 mg
Drug excretion [6]: 32 mg
Drug excretion [7]: 42.3 mg
Drug excretion [8]: 17.2 mg
Drug excretion [9]: 13 mg
Drug excretion [10]: 43.4 mg
Drug excretion [11]: 28.41 mg
Drug metabolism [12]: 6.9 %molar
Drug excretion [13]: 39.7 mg
Drug excretion [14]: 12.2 mg
Drug metabolism [15]: 27.1 %molar
Drug excretion [16]: 13.1 mg
Drug excretion [17]: 17.9 mg
Drug excretion [18]: 44.45 mg
Drug excretion [19]: 38.5 mg
Drug excretion [20]: 43.3 mg
Drug excretion [21]: 11.6 mg
Drug excretion [22]: 10.074 mg
Drug excretion [23]: 45.9 mg
Drug excretion [24]: 36.2 mg
Drug excretion [25]: 26.6 mg
Drug excretion [26]: 33.2 mg
Drug metabolism [27]: 34.3 %molar
Drug metabolism [28]: 13.9 %molar
Drug excretion [29]: 9.44 mg
Drug excretion [30]: 32.59 mg
Drug excretion [31]: 11.202 mg
Structure (SMILES): NNC(=O)c1ccncc1 [ISONIAZID]
